Assays:
[1] = test system: subjects with insomnia; test: Actigraphy measures of TST and WASO, outpatient portion of the insomnia study; assay type: in vivo, human; conditions: Tx (n = 2)
[2] = test system: HPA axis activity in healthy control subject; test: 2 days of a GR antagonist in healthy control subject under constant routine conditions, salivary cortisol; assay type: in vivo, human; conditions: 400 mg for two consecutive days, single healthy subject, FIG. 5
Procedure: In a separate experiment, the longitudinal effects of 2 days of a GR antagonist on melatonin and HPA axis activity was measured in healthy control subject during an inpatient stay under constant routine conditions. […] Salivary cortisol, ACTH and dim light melatonin were measured the evening/morning before and on the second evening/morning of medication. The design was created to include measures of the phase of night-time DLMO as well as measures of the morning response of the HPA axis, including timing of cortisol acrophase. The design was formulated to ascertain circadian phase shifting in a controlled setting with healthy subjects (as might occur in jet-lag or shift work). […] Salivary melatonin samples were insufficient.

[3] = test system: subjects with insomnia; test: Polysomnogram measures, double-blinded placebo controlled study of 5 days mifepristone in insomnia; assay type: in vivo, human; conditions: for % REM, average / % S1, average / % S2, average / % S3, average / % S4, average / Arousal, average / NUAW, average / Rem Lat, average / Rem density, average / S3 Lat, average / SE (S2, S3, S4), average / SE (S3, S4), average / SPT, average / TST, average / WASO, average: Rx Ave (n = 5)
[4] = molecular target: T1, progesterone receptors (Homo sapiens, UniProt P06401); conditions: literature; cited from earlier work
T1 sequence (P06401 1-933): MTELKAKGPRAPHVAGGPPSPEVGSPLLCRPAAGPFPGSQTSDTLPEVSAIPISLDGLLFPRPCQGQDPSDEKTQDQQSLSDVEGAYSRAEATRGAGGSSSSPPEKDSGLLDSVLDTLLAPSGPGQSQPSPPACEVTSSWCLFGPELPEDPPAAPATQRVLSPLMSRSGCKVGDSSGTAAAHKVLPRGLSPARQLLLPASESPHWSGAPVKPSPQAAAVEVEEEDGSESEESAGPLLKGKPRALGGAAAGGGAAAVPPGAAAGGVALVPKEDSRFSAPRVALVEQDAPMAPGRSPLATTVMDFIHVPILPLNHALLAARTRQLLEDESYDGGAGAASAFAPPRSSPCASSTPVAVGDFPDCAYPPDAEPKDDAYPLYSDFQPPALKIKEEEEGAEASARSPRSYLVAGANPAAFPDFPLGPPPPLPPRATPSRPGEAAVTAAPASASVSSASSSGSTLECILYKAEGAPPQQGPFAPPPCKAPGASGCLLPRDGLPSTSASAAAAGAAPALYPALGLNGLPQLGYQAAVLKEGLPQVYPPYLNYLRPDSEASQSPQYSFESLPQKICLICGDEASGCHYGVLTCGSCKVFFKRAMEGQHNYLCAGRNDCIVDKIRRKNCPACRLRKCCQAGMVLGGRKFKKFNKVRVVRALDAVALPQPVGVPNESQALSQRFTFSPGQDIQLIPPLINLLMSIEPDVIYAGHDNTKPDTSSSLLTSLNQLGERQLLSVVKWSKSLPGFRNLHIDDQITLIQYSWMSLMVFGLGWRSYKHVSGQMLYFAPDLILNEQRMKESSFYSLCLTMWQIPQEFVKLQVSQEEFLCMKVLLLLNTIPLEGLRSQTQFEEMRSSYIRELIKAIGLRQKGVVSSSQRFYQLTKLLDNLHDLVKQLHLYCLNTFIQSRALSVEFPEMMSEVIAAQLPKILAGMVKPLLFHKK

[5] = 2 Wk Post Tx rel to Baseline, Tx Delta
[6] = 2 Wk Post Tx rel to Baseline, Tx rel to Plac
[7] = Day 5 Tx rel to Baseline, Tx Delta
[8] = Day 5 Tx rel to Baseline, Tx rel to Plac

CC#C[C@]1(O)CC[C@H]2[C@@H]3CCC4=CC(=O)CCC4=C3[C@@H](c3ccc(N(C)C)cc3)C[C@@]21C [mifepristone, 17-beta-hydroxy-11-beta-(4-dimethyl-aminophenyl)-17-alpha-(1-propynyl)-estra-4,9-dien-3-one]
D7AV-smin (actigraphy TST) ([1]; D7AV): 458.86 min
D7AV-waso (actigraphy WASO) ([1]; D7AV): 45.14
D20AV-smin (actigraphy TST) ([1]; D20AV): 448.40 min
D20AV-waso (actigraphy WASO) ([1]; D20AV): 51.70
D26AV-smin (actigraphy TST) ([1]; D26AV): 473.08 min
D26AV-waso (actigraphy WASO) ([1]; D26AV): 31.67
cortisol [2]: rise
timing of the morning acrophase of cortisol [2]: delay
% REM (percentage REM sleep) [3, 5]: 1.63%
% S1 (percentage stage 1 sleep) [3, 5]: −39.19%
% S2 (percentage stage 2 sleep) [3, 5]: −2.68%
% S3 (percentage stage 3 sleep) [3, 5]: 1.09%
% S4 (percentage stage 4 sleep) [3, 5]: −1.48%
Arousal [3, 5]: 5.2
NUAW (number of awakenings) [3, 5]: 0
Rem Lat (minutes to first epoch of REM after sleep onset) [3, 5]: -4 min
Rem p [3, 5]: 1.972
S3 Lat (latency to onset of stage 3 sleep) [3, 5]: -0.85 min
SEB (S2, S3, S4) (total combined minutes of stage 2, 3 and 4 per total sleep minutes) [3, 5]: 2.57
SEC (S3, S4) (total combined minutes of stage 3, 4 per total sleep minutes) [3, 5]: 1.19
SPT [3, 5]: 28.1 min
TST (total combined minutes of sleep) [3, 5]: 38.5 min
WASO (wake after sleep onset) [3, 5]: -10.4 min
% REM (percentage REM sleep) [3, 6]: 1.31%
% S1 (percentage stage 1 sleep) [3, 6]: −0.01%
% S2 (percentage stage 2 sleep) [3, 6]: −5.05%
% S3 (percentage stage 3 sleep) [3, 6]: 1.45%
% S4 (percentage stage 4 sleep) [3, 6]: −0.98%
Arousal [3, 6]: −3.7
NUAW (number of awakenings) [3, 6]: 1.5
Rem Lat (minutes to first epoch of REM after sleep onset) [3, 6]: 39.5 min
Rem p [3, 6]: 2.73
S3 Lat (latency to onset of stage 3 sleep) [3, 6]: 23.1 min
SEB (S2, S3, S4) (total combined minutes of stage 2, 3 and 4 per total sleep minutes) [3, 6]: −1.34
SEC (S3, S4) (total combined minutes of stage 3, 4 per total sleep minutes) [3, 6]: 2.02
SPT [3, 6]: 29.55 min
TST (total combined minutes of sleep) [3, 6]: 21.65 min
WASO (wake after sleep onset) [3, 6]: 7.85 min
% REM (percentage REM sleep) [3, 7]: −9.33%
% S1 (percentage stage 1 sleep) [3, 7]: −38.34%
% S2 (percentage stage 2 sleep) [3, 7]: 6.44%
% S3 (percentage stage 3 sleep) [3, 7]: 0.76%
% S4 (percentage stage 4 sleep) [3, 7]: −0.01%
Arousal [3, 7]: 0.9
NUAW (number of awakenings) [3, 7]: 3.3
Rem Lat (minutes to first epoch of REM after sleep onset) [3, 7]: 61.15 min
Rem p [3, 7]: −0.826
S3 Lat (latency to onset of stage 3 sleep) [3, 7]: 7.05 min
SEB (S2, S3, S4) (total combined minutes of stage 2, 3 and 4 per total sleep minutes) [3, 7]: −2.13
SEC (S3, S4) (total combined minutes of stage 3, 4 per total sleep minutes) [3, 7]: −7.3
SPT [3, 7]: 28.69 min
TST (total combined minutes of sleep) [3, 7]: 17.05 min
WASO (wake after sleep onset) ([3]; Day 5 Tx rel to Baseline, Tx Delta, 600 mg/day in the morning, 5 days): 16.4 min
% REM (percentage REM sleep) [3, 8]: −9.69%
% S1 (percentage stage 1 sleep) [3, 8]: 1.76%
% S2 (percentage stage 2 sleep) [3, 8]: 3.9%
% S3 (percentage stage 3 sleep) [3, 8]: 0.71%
% S4 (percentage stage 4 sleep) [3, 8]: 0.42%
Arousal [3, 8]: −3.8
NUAW (number of awakenings) [3, 8]: 5
Rem Lat (minutes to first epoch of REM after sleep onset) [3, 8]: 99.6 min
Rem p [3, 8]: 0.654
S3 Lat (latency to onset of stage 3 sleep) [3, 8]: 19.35 min
SEB (S2, S3, S4) (total combined minutes of stage 2, 3 and 4 per total sleep minutes) [3, 8]: −6.85
SEC (S3, S4) (total combined minutes of stage 3, 4 per total sleep minutes) [3, 8]: −7.45
SPT [3, 8]: 29.39 min
TST (total combined minutes of sleep) [3, 8]: -3.75 min
WASO (wake after sleep onset) [3, 8]: 37.85 min
% REM, average ([3]; T2): 11.62%
% S1, average ([3]; T2): 15.48%
% S2, average ([3]; T2): 60.26%
% S3, average ([3]; T2): 7.63%
% S4, average ([3]; T2): 4.36%
Arousal, average ([3]; T2): 105.70
NUAW, average ([3]; T2): 27.60
Rem Lat, average ([3]; T2): 137.95 min
Rem density, average ([3]; T2): 7.16
S3 Lat, average ([3]; T2): 24.80 min
SE (S2, S3, S4), average ([3]; T2): 83.34
SE (S3, S4), average ([3]; T2): 24.94
SPT, average ([3]; T2): 469.24 min
TST, average ([3]; T2): 390.65 min
WASO, average ([3]; T2): 83.35 min
% REM, average ([3]; T3): 22.58%
% S1, average ([3]; T3): 14.63%
% S2, average ([3]; T3): 51.14%
% S3, average ([3]; T3): 7.96%
% S4, average ([3]; T3): 2.89%
Arousal, average ([3]; T3): 110.00
NUAW, average ([3]; T3): 24.30
Rem Lat, average ([3]; T3): 72.80 min
Rem density, average ([3]; T3): 9.95
S3 Lat, average ([3]; T3): 16.90 min
SE (S2, S3, S4), average ([3]; T3): 88.04
SE (S3, S4), average ([3]; T3): 33.43
SPT, average ([3]; T3): 468.65 min
TST, average ([3]; T3): 412.10 min
WASO, average ([3]; T3): 56.55 min
total sleep time (TST), in words ([3]; at 2 weeks post treatment): increased
REM latency (RL), in words ([3]; most acutely during active treatment): increased
antagonist of progesterone receptors [4]: powerful antagonist

From US20070270393A1, “Methods and compositions for modulation of sleep cycle” (priority 2006, published 2007)
